Our source for the IC50 values is PMC2686615 (International Immunology, 2009).

pIC50: −log10 of the molar value. Where a SMILES comes first, the peptide text is derived from it.

The experiment concerns the target soluble DQ8 proteins (HLA-DQ8, DQA1*0301/DQB1*0302) (Homo sapiens, UniProt P01909+P01920, A209T/A45G/C70Q/D89A/DUP78-78/E183D/E77G/F237L/G63E/H199R/I129T/K197E/L178F/L74F/L98V/Q57E/Q76R/S185I/S97I/T217I/T49S/V73L/Y58L). Format: binding.
Molecule `CC[C@H](C)[C@H](NC(=O)[C@H](C)N)C(=O)N[C@@H](CC(C)C)C(=O)N[C@H](C(=O)N[C@@H](CC(=O)O)C(=O)N[C@@H](C)C(=O)N[C@@H](C)C(=O)N[C@@H](Cc1c[nH]cn1)C(=O)N[C@@H](CC(C)C)C(=O)N[C@@H](CC(C)C)C(=O)N[C@H](C(=O)N[C@@H](CC(=O)O)C(=O)N[C@@H](CC(C)C)C(=O)N[C@H](C(=O)O)[C@@H](C)O)[C@@H](C)CC)[C@@H](C)O` [ZnT8 98–111] (H-AILTDAAHLLIDLT-OH) had a pIC50 of 5.14. With `CC[C@H](C)[C@H](NC(=O)[C@H](CCC(=O)O)NC(=O)[C@H](C)NC(=O)[C@H](CCCNC(=N)N)NC(=O)[C@H](Cc1ccc(O)cc1)NC(=O)[C@H](Cc1c[nH]c2ccccc12)NC(=O)CNC(=O)[C@H](Cc1ccccc1)NC(=O)[C@@H](NC(=O)[C@H](CC(C)C)NC(=O)[C@H](CCCNC(=N)N)NC(=O)[C@H](CCCCN)NC(=O)[C@@H](N)CO)[C@@H](C)O)C(=O)N[C@@H](CC(C)C)C(=O)O` [ZnT8 128–141] (H-SKRLTFGWYRAEIL-OH) the figure was 4.69; with `CC[C@H](C)[C@H](NC(=O)CNC(=O)[C@H](C)NC(=O)[C@H](CCC(N)=O)NC(=O)[C@@H](NC(=O)[C@H](CCC(N)=O)NC(=O)[C@H](Cc1ccc(O)cc1)NC(=O)[C@H](CC(=O)O)NC(=O)[C@@H]1CCCN1C(=O)[C@H](Cc1ccc(O)cc1)NC(=O)[C@@H](N)CC(C)C)[C@@H](C)CC)C(=O)N[C@@H](CCSC)C(=O)N[C@H](C(=O)N[C@H](C(=O)O)[C@@H](C)O)[C@@H](C)CC` [ZnT8 166–179] (H-LYPDYQIQAGIMIT-OH), 6.15.

As to `CC[C@H](C)[C@H](NC(=O)[C@H](Cc1c[nH]cn1)NC(=O)[C@H](CC(C)C)NC(=O)[C@H](CO)NC(=O)[C@H](Cc1c[nH]cn1)NC(=O)[C@@H](NC(=O)[C@H](CO)NC(=O)[C@@H](NC(=O)[C@@H](NC(=O)CNC(=O)[C@H](CC(=O)O)NC(=O)[C@@H](NC(=O)[C@H](C)N)C(C)C)C(C)C)[C@@H](C)CC)C(C)C)C(=O)N[C@@H](Cc1c[nH]c2ccccc12)C(=O)O` [ZnT8 292–305] (H-AVDGVISVHSLHIW-OH), the negative logarithm of the IC50 (pIC50) is 4.74. Regarding `CC[C@H](C)[C@H](N)C(=O)N[C@@H](CC(C)C)C(=O)N[C@@H](CO)C(=O)N[C@H](C(=O)N[C@@H](Cc1c[nH]cn1)C(=O)N[C@H](C(=O)N[C@@H](C)C(=O)N[C@H](C(=O)N[C@@H](C)C(=O)N[C@@H](C)C(=O)N[C@@H](CO)C(=O)N[C@@H](CCC(N)=O)C(=O)N[C@@H](CC(=O)O)C(=O)N[C@@H](CO)C(=O)O)[C@@H](C)O)C(C)C)C(C)C` [ZnT8 313–326] (H-ILSVHVATAASQDS-OH), the pIC50 is 5.31. For the molecule `CC[C@H](C)[C@H](NC(=O)CNC(=O)[C@@H](NC(=O)[C@@H](N)CCCNC(=N)N)[C@@H](C)O)C(=O)N[C@@H](C)C(=O)N[C@@H](CCC(N)=O)C(=O)N[C@@H](C)C(=O)N[C@@H](CC(C)C)C(=O)N[C@@H](CO)C(=O)N[C@@H](CO)C(=O)N[C@@H](Cc1ccccc1)C(=O)N[C@@H](CC(=O)O)C(=O)N[C@@H](CC(C)C)C(=O)N[C@@H](Cc1c[nH]cn1)C(=O)O` [ZnT8 330–343] (H-RTGIAQALSSFDLH-OH), the negative logarithm of the IC50 (pIC50) is 5.60.

Consider `CC[C@H](C)[C@H](NC(=O)[C@H](CCC(N)=O)NC(=O)[C@@H](NC(=O)[C@@H](NC(=O)[C@@H](N)CC(C)C)[C@@H](C)O)[C@@H](C)CC)C(=O)N[C@@H](CCC(=O)O)C(=O)N[C@@H](CO)C(=O)N[C@@H](C)C(=O)N[C@@H](C)C(=O)N[C@@H](CC(=O)O)C(=O)N[C@@H](CCC(N)=O)C(=O)N[C@@H](CC(=O)O)C(=O)N1CCC[C@H]1C(=O)N[C@@H](CO)C(=O)O` [ZnT8 345–358] (H-LTIQIESAADQDPS-OH), for which the pIC50 is 5.60.
